# Measured values taken from BindingDB's records for doi:10.1021/jm030165t (National Center For Genetic Engineering and Biotechnology …, 2004).
# Assays:
# [1] = biological target: Bifunctional dihydrofolate reductase-thymidylate synthase (Plasmodium falciparum (isolate K1 / Thailand), UniProt P13922); experiment: Binding affinity towards wild-type dihydrofolate reductase of Plasmodium falciparum.
# [2] = In vitro anti-plasmodial activity against Plasmodium falciparum dihydrofolate reductase wild type (TM4/8.2)
# [3] = In vitro anti-plasmodial activity against Plasmodium falciparum dihydrofolate reductase C59R/S108N (K1CB1) mutant
# [4] = In vitro anti-plasmodial activity against Plasmodium falciparum dihydrofolate reductase A16V/S108T (T9/94RC17) mutant
# [5] = In vitro anti-plasmodial activity against Plasmodium falciparum dihydrofolate reductase […]/C59R/S108N/I164L (V1/S) mutant
# [6] = In vitro anti-plasmodial activity against Plasmodium falciparum dihydrofolate reductase C59R+S108N/I164L (Csl-2) mutant
# [7] = In vitro anti-plasmodial activity against Plasmodium falciparum dihydrofolate reductase N51I/C59R/S108N (W2)
# Chain of Bifunctional dihydrofolate reductase-thymidylate synthase (P13922 whole entry): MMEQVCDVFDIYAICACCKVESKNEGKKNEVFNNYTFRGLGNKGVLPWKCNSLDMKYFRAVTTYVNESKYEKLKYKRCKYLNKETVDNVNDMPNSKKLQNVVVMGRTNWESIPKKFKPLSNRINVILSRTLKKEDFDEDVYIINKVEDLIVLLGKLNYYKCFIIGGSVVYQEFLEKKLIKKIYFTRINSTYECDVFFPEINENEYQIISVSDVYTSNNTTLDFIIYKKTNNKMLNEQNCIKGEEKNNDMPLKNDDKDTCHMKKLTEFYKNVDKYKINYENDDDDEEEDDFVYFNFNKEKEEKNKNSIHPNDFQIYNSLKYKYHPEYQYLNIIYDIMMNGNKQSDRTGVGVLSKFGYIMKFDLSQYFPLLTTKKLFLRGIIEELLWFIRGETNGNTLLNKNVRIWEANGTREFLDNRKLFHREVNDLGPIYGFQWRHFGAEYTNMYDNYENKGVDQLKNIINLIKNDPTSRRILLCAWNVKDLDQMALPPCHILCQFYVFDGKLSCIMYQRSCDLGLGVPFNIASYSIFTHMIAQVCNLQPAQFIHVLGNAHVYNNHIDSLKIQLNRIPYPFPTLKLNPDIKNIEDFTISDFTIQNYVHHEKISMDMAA
Compound,Ki [1],IC50 [2],IC50 [3],IC50 [4],IC50 [5],IC50 [6],IC50 [7]
"NC1=NC(c2cccc(Oc3ccc(Cl)cc3)c2)N(c2ccc(Cl)cc2)C(N)=N1 (stereo unspecified) [6-(3-(4-chlorophenoxy)phenyl)-1-(4-chlorophenyl)-1,6-dihydro-1,3,5-triazine-2,4-diamine]",1.4 nM,2800 nM,3300 nM,420 nM,,,
"NC1=NC(c2cccc(Oc3cccc(C(F)(F)F)c3)c2)N(c2cccc(Cl)c2)C(N)=N1 (stereo unspecified) [1-(3-chlorophenyl)-6-(3-(3-(trifluoromethyl)phenoxy)phenyl)-1,6-dihydro-1,3,5-triazine-2,4-diamine]",2.7 nM,3200 nM,2800 nM,180 nM,3200 nM,3400 nM,2800 nM
"CCCCCCC1(C)N=C(N)N=C(N)N1c1ccc(Cl)cc1 (stereo unspecified) [1-(4-chlorophenyl)-6-hexyl-6-methyl-1,6-dihydro-1,3,5-triazine-2,4-diamine]",0.6 nM,20 nM,2400 nM,1900 nM,6400 nM,4100 nM,3300 nM
"COc1ccc(CCCc2nc(N)nc(N)c2-c2cccc(Cl)c2)cc1 [5-(3-Chloro-phenyl)-6-[3-(4-methoxy-phenyl)-propyl]-pyrimidine-2,4-diamine]",,410 nM,,,4700 nM,2700 nM,4000 nM
"Nc1nc(N)c(-c2cccc(Cl)c2)c(CCOCCCOc2ccccc2)n1 [5-(3-chlorophenyl)-6-[2-(3-phenoxypropoxy)ethyl]pyrimidine-2,4-diamine]",,350 nM,,,4600 nM,2900 nM,4500 nM
"NC1=NC(c2ccccc2)N(c2cccc(Cl)c2)C(N)=N1 (stereo unspecified) [1-(3-chlorophenyl)-6-phenyl-1,6-dihydro-1,3,5-triazine-2,4-diamine]",,560 nM,310 nM,20 nM,800 nM,250 nM,200 nM
"CCCC1(C)N=C(N)N=C(N)N1c1cccc(Cl)c1 (stereo unspecified) [1-(3-chlorophenyl)-6-methyl-6-propyl-1,6-dihydro-1,3,5-triazine-2,4-diamine]",4.6 nM,180 nM,180 nM,,1100 nM,290 nM,280 nM
"CCc1nc(N)nc(N)c1-c1cccc(Cl)c1 [5-(3-chlorophenyl)-6-ethylpyrimidine-2,4-diamine]",,420 nM,,,9100 nM,2500 nM,3900 nM
"NC1=NC(c2cccc(OCc3ccccc3)c2)N(c2cccc(Cl)c2)C(N)=N1 (stereo unspecified) [6-(3-(benzyloxy)phenyl)-1-(3-chlorophenyl)-1,6-dihydro-1,3,5-triazine-2,4-diamine]",2.3 nM,4000 nM,4900 nM,190 nM,,7500 nM,3300 nM
"Nc1nc(N)c(-c2cccc(Cl)c2)c(CCCO)n1 [3-[2,6-Diamino-5-(3-chloro-phenyl)-pyrimidin-4-yl]-propan-1-ol]",9.2 nM,1100 nM,,,6200 nM,1900 nM,4500 nM
"Nc1nc(N)c(-c2cccc(Cl)c2)c(CCCOC(=O)c2ccccc2)n1 [3-(2,6-diamino-5-(3-chlorophenyl)pyrimidin-4-yl)propyl benzoate]",1.5 nM,2100 nM,,,7500 nM,1900 nM,2000 nM
CC1(C)N=C(N)N=C(N)N1c1ccc(Cl)cc1 [Chlorazin],,40 nM,,3700 nM,> 100000 nM,37900 nM,5800 nM
"NC1=NC(c2cccc(Oc3ccccc3)c2)N(c2cccc(Cl)c2)C(N)=N1 (stereo unspecified) [1-(3-chlorophenyl)-6-(3-phenoxyphenyl)-1,6-dihydro-1,3,5-triazine-2,4-diamine]",1.1 nM,2200 nM,2700 nM,60 nM,3600 nM,3400 nM,3500 nM
Nc1nc(N)c(-c2ccccc2)c(CCCc2ccccc2)n1,,210 nM,,,8600 nM,2700 nM,2700 nM
"CC(=O)OCCCc1nc(N)nc(N)c1-c1cccc(Cl)c1 [Acetic acid 3-[2,6-diamino-5-(3-chloro-phenyl)-pyrimidin-4-yl]-propyl ester]",,1600 nM,,,5300 nM,1800 nM,2100 nM
"CC(C)C1(C)N=C(N)N=C(N)N1c1ccc(Cl)cc1 (stereo unspecified) [1-(4-Chloro-phenyl)-6-isopropyl-6-methyl-1,6-dihydro-[1,3,5]triazine-2,4-diamine]",36.5 nM,,,,,,
"NC1=NC(c2cccc(Oc3ccc(Cl)cc3)c2)N(c2cccc(Cl)c2)C(N)=N1 (stereo unspecified) [6-(3-(4-chlorophenoxy)phenyl)-1-(3-chlorophenyl)-1,6-dihydro-1,3,5-triazine-2,4-diamine]",1.3 nM,3900 nM,2600 nM,390 nM,3200 nM,3100 nM,2000 nM

Compound,Ki [1],IC50 [2],IC50 [3],IC50 [4],IC50 [5],IC50 [6],IC50 [7]
"NC1=NC(c2cccc(OCCCOc3cc(Cl)c(Cl)cc3Cl)c2)N(c2cccc(Cl)c2)C(N)=N1 (stereo unspecified) [1-(3-chlorophenyl)-6-(3-(3-(2,4,5-trichlorophenoxy)propoxy)phenyl)-1,6-dihydro-1,3,5-triazine-2,4-diamine]",4 nM,3000 nM,7400 nM,370 nM,8600 nM,5200 nM,3200 nM
"CCCCCCc1nc(N)nc(N)c1-c1ccccc1 [6-hexyl-5-phenylpyrimidine-2,4-diamine]",,60 nM,,,6400 nM,3000 nM,2300 nM
"NC1=NC(c2ccc(Oc3ccccc3)cc2)N(c2cccc(Cl)c2)C(N)=N1 (stereo unspecified) [1-(3-chlorophenyl)-6-(4-phenoxyphenyl)-1,6-dihydro-1,3,5-triazine-2,4-diamine]",0.7 nM,650 nM,3100 nM,4 nM,3300 nM,3300 nM,740 nM
"CCCCCCC1(C)N=C(N)N=C(N)N1c1cccc(Cl)c1 (stereo unspecified) [1-(3-Chloro-phenyl)-6-hexyl-6-methyl-1,6-dihydro-[1,3,5]triazine-2,4-diamine]",2.4 nM,60 nM,480 nM,,3200 nM,490 nM,510 nM
"Nc1nc(N)c(-c2ccccc2)c(CCCOC(=O)c2ccccc2)n1 [Benzoic acid 3-(2,6-diamino-5-phenyl-pyrimidin-4-yl)-propyl ester]",3.4 nM,,,,,,
"CCCCCCCC1N=C(N)N=C(N)N1c1cccc(Cl)c1 (stereo unspecified) [1-(3-Chloro-phenyl)-6-heptyl-1,6-dihydro-[1,3,5]triazine-2,4-diamine]",2.7 nM,40 nM,260 nM,4 nM,2500 nM,140 nM,330 nM
"NC1=NC(c2cccc(OCc3ccccc3)c2)N(c2ccc(Cl)cc2)C(N)=N1 (stereo unspecified) [6-(3-Benzyloxy-phenyl)-1-(4-chloro-phenyl)-1,6-dihydro-[1,3,5]triazine-2,4-diamine]",0.7 nM,,,,,,
"NC1=NC(c2ccc(Oc3ccccc3)cc2)N(c2ccc(Cl)cc2)C(N)=N1 (stereo unspecified) [1-(4-chlorophenyl)-6-(4-phenoxyphenyl)-1,6-dihydro-1,3,5-triazine-2,4-diamine]",0.4 nM,120 nM,3100 nM,40 nM,,4800 nM,3200 nM
"CCCOc1ccc(C2N=C(N)N=C(N)N2c2cccc(Cl)c2)cc1 (stereo unspecified) [1-(3-chlorophenyl)-6-(4-propoxyphenyl)-1,6-dihydro-1,3,5-triazine-2,4-diamine]",,250 nM,1000 nM,4 nM,2900 nM,2900 nM,380 nM
"CC(=O)OCCCc1nc(N)nc(N)c1-c1ccccc1 [Acetic acid 3-(2,6-diamino-5-phenyl-pyrimidin-4-yl)-propyl ester]",10.6 nM,,,,,,
"Nc1nc(N)c(-c2cccc(Cl)c2)c(CCCOC(=O)OCc2ccccc2)n1 [benzyl 3-(2,6-diamino-5-(3-chlorophenyl)pyrimidin-4-yl)propyl carbonate]",1.2 nM,1900 nM,,,5900 nM,1900 nM,4100 nM
"CCCC1(C)N=C(N)N=C(N)N1c1ccc(Cl)cc1 (stereo unspecified) [1-(4-Chloro-phenyl)-6-methyl-6-propyl-1,6-dihydro-[1,3,5]triazine-2,4-diamine]",3.5 nM,,,,,,
"CC(C)C1(C)N=C(N)N=C(N)N1c1cccc(Cl)c1 (stereo unspecified) [1-(3-Chloro-phenyl)-6-isopropyl-6-methyl-1,6-dihydro-[1,3,5]triazine-2,4-diamine]",25.5 nM,,,,,,
Nc1nc(N)c(-c2cccc(Cl)c2)c(CCCc2ccccc2)n1,,670 nM,,,5700 nM,3600 nM,4300 nM
"NC1=NC(c2cccc(Oc3ccccc3)c2)N(c2ccc(Cl)cc2)C(N)=N1 (stereo unspecified) [1-(4-Chloro-phenyl)-6-(3-phenoxy-phenyl)-1,6-dihydro-[1,3,5]triazine-2,4-diamine]",0.5 nM,,,,,,
"NC1=NC(c2cccc(Oc3cc(Cl)cc(Cl)c3)c2)N(c2cccc(Cl)c2)C(N)=N1 (stereo unspecified) [1-(3-Chloro-phenyl)-6-[3-(3,5-dichloro-phenoxy)-phenyl]-1,6-dihydro-[1,3,5]triazine-2,4-diamine]",1.8 nM,5500 nM,3100 nM,50 nM,3900 nM,3900 nM,3400 nM
